Experimental findings from PubChem BioAssay (NCI) are described below.

Some test systems named below: SNB-19 CNS; HOP-62 NSCLC; PC-3 prostate; SK-OV-3 ovarian; CCRF-CEM leukemia; NCI-H226 lung; MDA-MB-435; SN12C renal; SW-620 colon; COLO 205 colon.
What all share (assay): NCI tumour cell line growth inhibition, 48 h

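Grown in 96-well plates, cells were treated for 48 hours with each compound at five concentrations. Insufficient inhibition: endpoint recorded as highest concentration tested. GI50 marks 50% less growth. Definition used: TGI = concentration required for complete inhibition of growth.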

As for `COc1c/c(=C2\C=c3ccccc3=N2)[nH]/c1=C\c1[nH]c(C)cc1C`, the GI50 in the experiment with SNB-19 CNS is 2.99 µM; in the experiment with HOP-62 NSCLC, 0.468 µM; in the experiment with PC-3 prostate, 0.12 µM; in the experiment with SK-OV-3 ovarian it was 1.54 µM; in the experiment with CCRF-CEM leukemia, less than 0.01 µM; in the experiment on NCI-H226 lung, 16.5 µM. In addition, the GI50 was 0.0136 µM with MDA-MB-435, 0.0782 µM with SN12C renal, less than 0.01 µM in the experiment with SW-620 colon and 0.0155 µM with COLO 205 colon. Besides, the TGI is greater than 88.7 µM in the experiment on SNB-19 CNS; 6.87 µM with HOP-62 NSCLC; 31.3 µM with PC-3 prostate; greater than 88.7 µM in the experiment on SK-OV-3 ovarian; 6.64 µM with CCRF-CEM leukemia; greater than 100 µM in the experiment with NCI-H226 lung. For the same molecule, the TGI with MDA-MB-435 amounted to 0.0951 µM; with SN12C renal, 59.5 µM; in the experiment with SW-620 colon, 51.4 µM; in the experiment on COLO 205 colon, 13.6 µM.
`Cc1ccc(O)c(NC(=O)c2cccc(Nc3ccnc(C(F)(F)F)c3)c2)c1`: the GI50 in the experiment with SNB-19 CNS is 17.9 µM; with HOP-62 NSCLC, 11.6 µM; in the experiment with PC-3 prostate, 11.4 µM; in the experiment on SK-OV-3 ovarian it was 16.6 µM; with CCRF-CEM leukemia, 1.82 µM; with NCI-H226 lung, 0.894 µM. Moreover, the GI50 with MDA-MB-435 was 6.65 µM; with SN12C renal, 5.81 µM; in the experiment with SW-620 colon it was 14.6 µM; in the experiment with COLO 205 colon it was 14.6 µM. The TGI was found to be 69.8 µM in the experiment on SNB-19 CNS; 28.9 µM in the experiment with HOP-62 NSCLC; 38.5 µM in the experiment on PC-3 prostate; 62 µM in the experiment with SK-OV-3 ovarian; 39.2 µM in the experiment with CCRF-CEM leukemia; 23.4 µM in the experiment on NCI-H226 lung. Further, the TGI in the experiment on MDA-MB-435 came to 25.9 µM; in the experiment with SN12C renal, 37.3 µM; with SW-620 colon it was 38.5 µM; with COLO 205 colon it was 33.7 µM.
Regarding `Cc1cc2c(C(=O)NC[C@H](C)c3ccccc3)c(O)c(O)cc2c(O)c1-c1c(C)cc2c(C(=O)NC[C@H](C)c3ccccc3)c(O)c(O)cc2c1O`, the GI50 is 0.0605 µM with SNB-19 CNS; 0.301 µM in the experiment on HOP-62 NSCLC; 0.342 µM with PC-3 prostate; 0.431 µM in the experiment with SK-OV-3 ovarian; 0.122 µM in the experiment with CCRF-CEM leukemia; 0.244 µM in the experiment on NCI-H226 lung. Besides, the GI50 in the experiment with MDA-MB-435 was 0.232 µM; in the experiment on SN12C renal it was 0.436 µM; in the experiment with SW-620 colon, 0.482 µM; in the experiment on COLO 205 colon it was 0.711 µM. Moreover, the TGI in the experiment with SNB-19 CNS came to 4.3 µM; in the experiment with HOP-62 NSCLC it was 2.15 µM; in the experiment with PC-3 prostate it was 1.46 µM; in the experiment with SK-OV-3 ovarian, 2.8 µM; in the experiment on CCRF-CEM leukemia, 11 µM; in the experiment with NCI-H226 lung it was 0.987 µM. Besides, the TGI with MDA-MB-435 turned out to be 4.79 µM; with SN12C renal it was 10.6 µM; with SW-620 colon, 5.7 µM; with COLO 205 colon it was 5.83 µM.
Regarding `Cc1nn(CNc2ccccc2C(F)(F)F)c(=S)n1/N=C/c1cccc2cccnc12`, the GI50 with SNB-19 CNS was greater than 100 µM; with HOP-62 NSCLC, greater than 100 µM; in the experiment on PC-3 prostate, 79.1 µM; in the experiment on SK-OV-3 ovarian, greater than 100 µM; in the experiment on CCRF-CEM leukemia, 18.9 µM; in the experiment with NCI-H226 lung, 56.2 µM. Also, the GI50 in the experiment with MDA-MB-435 is 22.7 µM; in the experiment on SN12C renal it was 19.9 µM; in the experiment on SW-620 colon, 65.8 µM; in the experiment on COLO 205 colon it was greater than 100 µM. Further, the TGI in the experiment on SNB-19 CNS, with HOP-62 NSCLC, with PC-3 prostate, with SK-OV-3 ovarian, in the experiment on CCRF-CEM leukemia and with NCI-H226 lung was greater than 100 µM in each case. Besides, the TGI with MDA-MB-435 was 55 µM; with SN12C renal, 72.7 µM; in the experiment on SW-620 colon it was greater than 100 µM; in the experiment on COLO 205 colon, greater than 100 µM.
Turning to `O=C(O)c1cc(-c2ccc3cc4c(cc3c2)OCO4)nc2ccccc12`, the TGI with SNB-19 CNS was greater than 100 µM; in the experiment on HOP-62 NSCLC, greater than 100 µM; with PC-3 prostate, greater than 100 µM; with SK-OV-3 ovarian it was greater than 100 µM; in the experiment with CCRF-CEM leukemia, 35.4 µM; in the experiment with NCI-H226 lung, greater than 100 µM. Also, the TGI in the experiment on MDA-MB-435, in the experiment on SN12C renal, in the experiment on SW-620 colon and in the experiment with COLO 205 colon was greater than 100 µM throughout.
`O=C1NC(=C(Cl)Cl)/C(=N/S(=O)(=O)N2CCCCC2)N1`: the GI50 is 2.38 µM in the experiment on SNB-19 CNS; 2.92 µM in the experiment on HOP-62 NSCLC; 3.05 µM with PC-3 prostate; 15.4 µM with SK-OV-3 ovarian; 2.19 µM in the experiment on CCRF-CEM leukemia; 3.37 µM with NCI-H226 lung. The GI50 was 1.98 µM with MDA-MB-435, 1.7 µM in the experiment on SN12C renal, 2.11 µM in the experiment with SW-620 colon and 2.01 µM in the experiment on COLO 205 colon. Besides, the TGI in the experiment on SNB-19 CNS stood at 5.34 µM; in the experiment on HOP-62 NSCLC it was 9.07 µM; in the experiment with PC-3 prostate, 10.5 µM; in the experiment on SK-OV-3 ovarian, 28.8 µM; with CCRF-CEM leukemia it was 4.92 µM; in the experiment on NCI-H226 lung, 14.9 µM. The TGI came to 4.21 µM in the experiment with MDA-MB-435, 3.14 µM with SN12C renal, 4.17 µM in the experiment with SW-620 colon and 3.88 µM with COLO 205 colon.
For `COc1ccc(C(=O)C(CN(C)C)CN(C)C)cc1`, the GI50 with SNB-19 CNS was 16.3 µM; in the experiment with HOP-62 NSCLC, 17.8 µM; with PC-3 prostate it was 13.2 µM; in the experiment on SK-OV-3 ovarian, 20.2 µM; in the experiment on CCRF-CEM leukemia it was 1.39 µM; with NCI-H226 lung, 16.9 µM. Moreover, the GI50 in the experiment on MDA-MB-435 was 2.84 µM; in the experiment on SN12C renal it was 12.6 µM; in the experiment with SW-620 colon, 1.78 µM; with COLO 205 colon, 1.11 µM. The TGI in the experiment on SNB-19 CNS turned out to be 33.1 µM; with HOP-62 NSCLC, 32.9 µM; in the experiment on PC-3 prostate it was 29.9 µM; in the experiment on SK-OV-3 ovarian, 59.5 µM; in the experiment with CCRF-CEM leukemia, 5.13 µM; with NCI-H226 lung, 37.6 µM. Moreover, the TGI came out at 8.58 µM with MDA-MB-435, 56.4 µM in the experiment with SN12C renal, 3.98 µM with SW-620 colon and 2.32 µM in the experiment on COLO 205 colon.
Consider `COc1ccccc1Nc1cc(O)c2c(=O)cc(-c3ccccc3)oc2c1`, for which the GI50 in the experiment on SNB-19 CNS was 2.99 µM; with HOP-62 NSCLC it was 3.55 µM; with PC-3 prostate it was 5.13 µM; in the experiment with SK-OV-3 ovarian, 3.57 µM; with CCRF-CEM leukemia, 3.57 µM; with NCI-H226 lung, 4.38 µM. Moreover, the GI50 in the experiment on MDA-MB-435 was 0.36 µM; with SN12C renal, 3.5 µM; with SW-620 colon, 2.5 µM; in the experiment on COLO 205 colon, 9.92 µM. The TGI was 15.7 µM in the experiment with SNB-19 CNS; greater than 100 µM in the experiment on HOP-62 NSCLC; 41.6 µM in the experiment on PC-3 prostate; 17.9 µM in the experiment with SK-OV-3 ovarian; greater than 100 µM in the experiment with CCRF-CEM leukemia; 28.8 µM in the experiment on NCI-H226 lung. Besides, the TGI is 2.03 µM with MDA-MB-435, 17.6 µM in the experiment on SN12C renal, greater than 100 µM with SW-620 colon and greater than 100 µM in the experiment on COLO 205 colon.
